# Data published in patent US12440466B2, “Fatty acid derivatives for treating non-alcoholic steatohepatitis” (BASF AS, priority 2017, dated 2025).
# Marks after values point to notes of the source that are not given here.
# Experiments:
# CDAA/high-fat fed mice [1] = assay: Hepatic hydroxyproline (HYP) content, CDAA/high-fat diet induced NASH mouse model; assay type: in vivo
# Source text: Mouse models that are deficient in methionine and/choline (MCD and CDAA respectively) are well established for studying the development and treatment of NASH in pre-clinical drug development. As precursors for the synthesis of phosphatidylcholine, a dietary deficiency of methionine/choline leads to an inability to synthesize hepatic lipoproteins for the export of triglyceride that results in severe hepatic steatosis, inflammation and fibrosis.
# Although the widely used methionine-choline deficient (MCD) diet consistently reproduces severe NASH-like hepatic inflammation and fibrosis in mice, it is also associated with severe weight-loss (loss of both skeletal muscle and fat mass). This is associated with an increased risk of death which presents major problems for long-term fibrogenesis experiments.
# (§1) In Biological Examples 1-7, studies were performed in male C56BL/6J mice (9 weeks old). Mice were fed either choline-sufficient (CS) or choline deficient high-fat diets (31% total calories; “CDAA/high-fat”). The NASH inducing diet was instigated 6 weeks prior to the commencement of treatment in order to design the study as a treatment/reversal set-up rather than prophylaxis.
# In Biological Examples 1-5, mice were divided into 6 experimental groups (n=9 per group) and fed either CS or CDAA/high-fat diets. After 6 weeks of either the CS- or CDAA diet, mice were orally administered Compound A or comparison Compound N, both at 2 doses, 0.15 mmol/kg bw/day (low-dose, LD) and 0.3 mmol/kg bw per day (high-dose, HD). The test substances were administered orally as admix to the high-fat diet. Hepatic fibrosis was assessed by both measurement of hydroxyproline (HYP) content and Sirius Red (SR) morphometry. Fibrosis, inflammation and metabolism related transcripts levels were measured by quantitative real-time polymerase chain reaction (qPCR).
# TNF-α mRNA = assay: Hepatic TNF-α mRNA expression by qPCR, CDAA/high-fat diet mouse model; assay type: in vivo; conditions: CDAA/high-fat fed mice
# Source text: (§2) Mice were fed either choline-sufficient (CS) or choline deficient high-fat diets (31% total calories; “CDAA/high-fat”). The NASH inducing diet was instigated 6 weeks prior to the commencement of treatment in order to design the study as a treatment/reversal set-up rather than prophylaxis.
# (§3) After 6 weeks of either the CS- or CDAA diet, mice were orally administered Compound A or comparison Compound N, both at 2 doses, 0.15 mmol/kg bw/day (low-dose, LD) and 0.3 mmol/kg bw per day (high-dose, HD). The test substances were administered orally as admix to the high-fat diet. Hepatic fibrosis was assessed by both measurement of hydroxyproline (HYP) content and Sirius Red (SR) morphometry. Fibrosis, inflammation and metabolism related transcripts levels were measured by quantitative real-time polymerase chain reaction (qPCR).
# (§4) Studies were performed in male C56BL/6J mice (9 weeks old). Mice were divided into 6 experimental groups (n=9 per group) containing either CS or CDAA/high-fat diets, as described above. The NASH inducing CDAA/high fat diet was instigated 6 weeks prior to the commencement of treatment in order to assess treatment/reversal rather than prophylaxis. […] Compound A was administered orally as admix to the high-fat diet whilst GLP-1 agonist was delivered via intraperitoneal injection (i.p.). Fibrosis, inflammation and metabolism related transcripts levels were measured by quantitative real-time polymerase chain reaction (qPCR) in isolated liver tissue.
# Col1a1 mRNA = assay: Hepatic Col1a1 mRNA expression by qPCR, CDAA/high-fat diet mouse model; assay type: in vivo; conditions: CDAA/high-fat fed mice
# Source text: as §2, §3, §4
# APOE*3Leiden.CETP mice [2] = assay: Hepatocellular hypertrophy grading in APOE*3Leiden.CETP double transgenic mice; assay type: in vivo, mouse; conditions: APOE*3Leiden.CETP mice on high fat/cholesterol diet; 0.3 mmol/kg bw per day by gavage; 20 weeks
# Source text: The APOE*3Leiden.CETP double transgenic mouse expresses a variant of the human apolipoprotein E3 (APOE3), the APOE*3Leiden, in addition to the human apolipoprotein C1 (APOC1) and CETP. […] By increasing the cholesterol content of the diet in this model, all the characteristics of human NASH develop.
# In one study (using 1% cholesterol w/w), after a 3 weeks run-in period low-responder mice (20% of total) were removed from the study and the remaining mice were sub-divided into 4 groups of 12 mice each (+5 in the control group), matched for plasma cholesterol, triglycerides, blood glucose, body weight and age (t=0) and treatment was started. The mice received a daily gavage between 07hr00 and 10hr00 with either Compound A at 0.3 mmol/kg bw per day, the comparison compound Compound N (0.3 mmol/kg bw per day), rosiglitazone (13 mg/kg bw per day) or control (corn oil). After 20 weeks of treatment mice were sacrificed by CO2 asphyxiation, the liver was collected and the level of hepatocellular hypertrophy was graded.
# APOE*3Leiden.CETP mice [3] = conditions: WO2016173923A1, cited from earlier work
# CDAA/high-fat fed mice [4] = assay: Hepatic lipidomic analysis, CDAA/high-fat diet mouse model; assay type: in vivo; conditions: Compound A 112 mg/kg bw per day or equimolar EPA, orally
# Description: as §1
# In Biological Example 7, after 6 weeks of either the CS or CDAA/high-fat diet, mice were administered 112 mg/kg bw per day of Compound A, or an equimolar dose of eicosapentaenoic acid (EPA), delivered orally. Hepatic lipidomic analysis was performed in isolated liver samples from CS (n=9), Compound A (n=9) and EPA (n=8) groups.
# To further understand the effects of Compound A on hepatic lipid metabolism, lipidomic analysis of CS- and CDAA/high-fat fed mice (“CD”) was performed in isolated liver tissue.
# [5] = system: LX-2 human hepatic stellate cells; assay: LX-2 stellate cell proliferation by BrdU incorporation; assay type: cell-based; conditions: LX-2 cells; 24 hours; OA 75 μM
# Description: (§5) Stellate cells are resident liver cells and the major cell type involved in the initiation and progression of liver fibrosis. In Biological Example 20, in vitro studies were performed on cultured human stellate cells (LX-2 cells) to assess direct effects of Compound A on these cells. Cells were treated for 24 hours with Compound A (10 μM, 25 μM, 50 μM, or 75 μM) or oleic acid (OA; 75 μM) and bromodeoxyuridine (BrdU) incorporation was assessed to determine effects on proliferation. A MTS (3-(4,5-dimethylthiazol-2-yl)-5-(3-carboxymethoxyphenyl)-2-(4-sulfophenyl)-2H-tetrazolium) assay was used to determine cell viability.
# (§6) Cell proliferation of LX-2 human hepatic stellate cells treated for 24 hours with 10-75 μM of Compound A or oleic acid (OA) (75 μM) was assessed by BrdU incorporation. The results are normalised mean values ±S.E.M. of 5 independent experiments for icosabutate and 2 independent experiments for OA. […] The reduction in proliferation by Compound A was 25-34% at 24 hours whereas OA had no effect. The comparisons were made by one-way ANOVA with Dunnett's correction for multiple comparisons.
# [6] = system: LX-2 human hepatic stellate cells; assay: LX-2 cell viability by MTS assay; assay type: cell-based; conditions: LX-2 cells; 24 hours; Compound A 10-75 μM, OA 75 μM
# Description: as §5, §6
# [7] = Body weight, liver weight and food intake in ob/ob AMLN mice; assay type: in vivo, mouse
# Description: (§7) Obese diet-induced B6.V-Lepob/Jrj mice (ob/ob) are consistently fibrosis (liver) prone when cholesterol (2%), 40% fat (containing 18% trans-fatty acids) and 20% fructose are added to a high-caloric diet (i.e., AMLN high-fat diet). ob/ob mice on AMLN diet (termed ‘ob/ob AMLN mice’) develop steatohepatitis and fibrosis within a shorter timeframe ([…]) compared with wild-type C57BL/6 mice (AMLN mice) fed the same diet. ob/ob AMLN mice provide an obese diet-induced model of NASH that also allows the study of effects on glycemic control. Development of NASH in the ob/ob AMLN model is confirmed by biopsy.
# In Biological Examples 10-12, 15, and 19, studies were performed in male ob/ob mice (5 weeks old) fed an AMLN high-fat diet for 15 weeks, then randomized into 3 groups (n=10 per group) to receive either 112 mg/kg bw per day of Compound A via diet, 30 mg/kg bw per day pioglitazone via diet or no treatment (vehicle) for a further 4 weeks. An oral glucose tolerance test (OGTT) was performed at week 3. Hepatic fibrosis was assessed via measurements of hepatic fibrogenic/fibrolytic gene expression by RNA sequencing at 4 weeks.
# (§8) In Biological Examples 10, 13-14, and 16-18, studies were performed in male ob/ob mice (5 weeks old) fed an AMLN high-fat diet for 18 weeks, then randomized into 6 groups (n=10 per group) to receive either Compound A (at 3 different daily doses, 45 mg/kg, 90 mg/kg or 135 mg/kg) via diet, 30 mg/kg bw per day obeticholic acid (OCA) via diet, or no treatment (vehicle) for a further 8 weeks. Assessment of NASH related parameters and fibrosis was made at study end by quantitative immune histochemistry (IHC) measurements.
# [8] = system: α-smooth muscle actin (SMA); assay: Hepatic α-SMA content by quantitative IHC in ob/ob AMLN mice; assay type: in vivo, mouse; conditions: 8 weeks, OCA 30 mg/kg
# Description: as §7, §8
# col1A1 = assay: Hepatic col1A1 content by quantitative IHC in ob/ob AMLN mice; assay type: in vivo, mouse; conditions: 8 weeks, OCA 30 mg/kg
# Description: as §7, §8
# ob/ob AMLN mice = assay: Plasma ALT and AST (hepatocellular damage) in ob/ob AMLN mice; assay type: in vivo, mouse; conditions: 8 weeks, OCA 30 mg/kg
# Description: as §7, §8
# To assess the effects of Compound A and pioglitazone on hepatocellular injury or damage in ob/ob AMLN mice, plasma alanine aminotransferase (ALT) and aspartate transaminase (AST) were measured after 8 weeks of administration.
# STAM (model) mice [9] = assay: NAFLD activity score (NAS) in streptozotocin/high-fat diet NASH model (STAM model); assay type: in vivo, mouse; conditions: 6 weeks treatment, Compound A 37 mg/kg/day oral gavage, telmisartan positive control
# Source text: (§9) In Biological Example 8, pathogen-free 15-day-pregnant C57BL/6 mice were obtained from Charles River Laboratories in Japan Inc. (Kanagawa, Japan). NASH was established in male mice by a single subcutaneous injection of streptozotocin (STZ) (Sigma, USA) after birth and feeding with a high fat diet (HFD; CLEA) Japan, Japan) ad libitum after 4 weeks of age (day 28±2). Mice were randomised into 3 groups of 8 mice at 6 weeks of age the day before the start of treatment: vehicle (saline), Compound A and telmisartan (positive control). Treatment with Compound A at a dose of 37 mg/kg bw per day via oral gavage in conjunction with a high-fat diet was given for 6 weeks before sacrifice. NAFLD activity score (NAS) was calculated according to standardised criteria and fibrosis area was assessed via Sirius Red staining.
# STAM (model) mice [10] = assay: Fibrosis area by Sirius Red staining, STAM model; assay type: in vivo, mouse; conditions: Sirius Red positive area, 6 weeks treatment, Compound A 37 mg/kg/day oral gavage
# Source text: as §9
# [11] = 8 weeks, Compound A 45, 90 and 135 mg/kg, OCA 30 mg/kg bw per day
smiles,measurement,setting,value
"CC/C=C\C/C=C\C/C=C\C/C=C\C/C=C\CCCCSC(CC)(CC)C(=O)O [Compound N, 2-ethyl-2-((5Z,8Z,11Z,14Z,17Z)-icosa-5,8,11,14,17-pentaenylthio)butanoic acid, reference compound]",Hydroxyproline (μg) content per 100 mg liver,CDAA/high-fat fed mice [1]; HD 0.3 mmol/kg bw per day orally as admix to diet,54 μg HYP/per 100 mg liver
same,Hydroxyproline (μg) content per 100 mg liver,CDAA/high-fat fed mice [1]; LD 0.15 mmol/kg bw/day orally as admix to diet,48 μg HYP/per 100 mg liver
same,Hydroxyproline (μg) content per liver,CDAA/high-fat fed mice [1]; high dose (HD) 0.3 mmol/kg bw per day orally as admix to diet,950 µg
same,Hydroxyproline (μg) content per liver,CDAA/high-fat fed mice [1]; low dose (LD) 0.15 mmol/kg bw/day orally as admix to diet,1100 µg
same,TNF-a (relative mRNA expression),TNF-α mRNA; HD 0.3 mmol/kg bw per day,1.2
same,TNF-a (relative mRNA expression),TNF-α mRNA; LD 0.15 mmol/kg bw/day,1***
same,Col1a1 (relative mRNA expression),Col1a1 mRNA; HD 0.3 mmol/kg bw per day,16
same,Col1a1 (relative mRNA expression),Col1a1 mRNA; LD 0.15 mmol/kg bw/day,15
same,Decrease in hypertrophy vs. control (%),APOE*3Leiden.CETP mice [2],7%
same,Hepatocellular hypertrophy,APOE*3Leiden.CETP mice [2],42.9 ± 29.7
same,fibrosis (hydroxyproline/proline ratio),APOE*3Leiden.CETP mice [3]; APOE*3Leiden.CETP mice,had efficacy in reducing fibrosis
same,influx of inflammatory cells into the liver,APOE*3Leiden.CETP mice [3],prevented the influx of inflammatory cells into the liver
"CC/C=C\C/C=C\C/C=C\C/C=C\C/C=C\CCCC(=O)O [EPA, (5Z,8Z,11Z,14Z,17Z)-icosa-5,8,11,14,17-pentaenoic acid, reference compound]",hepatic cholesteryl ester,CDAA/high-fat fed mice [4],did not reduce
same,hepatic diglycerides (DG),CDAA/high-fat fed mice [4],did not reduce
same,hepatic free fatty acids (FFA),CDAA/high-fat fed mice [4],did not reduce
same,hepatic triglyceride (TG),CDAA/high-fat fed mice [4],did not reduce
"CCCCCCCC/C=C\CCCCCCCC(=O)O [OA, oleic acid, reference compound]",proliferation (BrdU incorporation),[5],no effect
same,cell viability (MTS assay),[6],neither Compound A nor OA showed a significant effect
"CC[C@H]1[C@@H](O)[C@@H]2[C@H](CC[C@]3(C)[C@@H]([C@H](C)CCC(=O)O)CC[C@@H]23)[C@@]2(C)CC[C@@H](O)C[C@@H]12 [OCA, reference compound]",body weight,[7]; [11],"neither Compound A (45 mg/kg, 90 mg/kg, and 135 mg/kg) nor OCA significantly affected body weight"
same,food intake,[7]; [11],not affected
same,area percentage of α-SMA content compared to pre-treatment biopsy,[8],no significant effect
same,total col1A1 content,col1A1,no significant effect
same,plasma ALT,ob/ob AMLN mice,no effect
same,plasma AST,ob/ob AMLN mice,no effect
"CCCc1nc2c(C)cc(-c3nc4ccccc4n3C)cc2n1Cc1ccc(-c2ccccc2C(=O)O)cc1 [Telmisartan, reference compound]",Hepatocellular ballooning,STAM (model) mice [9],0.8
same,Lobular inflammation,STAM (model) mice [9],0.45
same,NAS score (mean ± SD),STAM (model) mice [9],1.8 ± 0.8
same,Steatosis,STAM (model) mice [9],0.7
same,Fibrosis area (%),STAM (model) mice [10],0.44%
"CCc1ccc(CCOc2ccc(CC3SC(=O)NC3=O)cc2)nc1 (stereo not drawn) [pioglitazone, reference compound]",increase in bodyweight,"[7]; 4 weeks, pioglitazone 30 mg/kg bw per day, p<0.01",15%
